Reference: patent publication US20250340591A1, “COMPOSITION FOR PREVENTING OR TREATING INFLAMMATORY BOWEL DISEASE CONTAINING NOVEL COMPOUND” (ANYGEN CO., LTD., priority 2021, published 2025)
Square brackets hold non-standard residues; d marks the D form. Peptide text beside a SMILES is read from it. * marks the point of attachment. His(Trt) = N[C@@H](Cc1cn(C(c2ccccc2)(c2ccccc2)c2ccccc2)cn1)C(=O)O; Biotin = O=C1N[C@H]2[C@H](CS[C@H]2CCCCC(=O)*)N1; Bip = N[C@@H](Cc1ccc(-c2ccccc2)cc1)C(=O)O; Octanoyl = CCCCCCCC(=O)*

Molecular target: T1, GPR39 (Homo sapiens, UniProt O43194)
T1 sequence (O43194 1-453): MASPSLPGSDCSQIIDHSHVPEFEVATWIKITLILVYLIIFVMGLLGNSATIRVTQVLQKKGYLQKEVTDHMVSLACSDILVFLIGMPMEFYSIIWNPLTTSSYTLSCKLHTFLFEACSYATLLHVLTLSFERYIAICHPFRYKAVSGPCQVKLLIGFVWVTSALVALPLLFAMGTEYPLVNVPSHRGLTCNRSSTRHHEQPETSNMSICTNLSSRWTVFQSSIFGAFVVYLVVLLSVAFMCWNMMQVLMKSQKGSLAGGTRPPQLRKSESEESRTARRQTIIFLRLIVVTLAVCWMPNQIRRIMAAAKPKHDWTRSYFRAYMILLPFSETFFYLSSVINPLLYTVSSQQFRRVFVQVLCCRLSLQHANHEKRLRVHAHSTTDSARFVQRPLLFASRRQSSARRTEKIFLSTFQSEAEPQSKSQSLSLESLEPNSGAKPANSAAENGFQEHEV
Assay: luciferase assay system (SRE luciferase reporter gene, CV-1 cells expressing GPR39)
Assay type: cell-based
Design: expressed in transfected cells; host or cells: CV-1 fibroblast cell line (Korea Cell Line Bank), adenoviral transduction at 50 MOI

| Structure (SMILES) | ECmax (−fold induction over basal) [fold induction over basal] |
| --- | --- |
| CCCCCCCC(=O)NCCCC[C@H](NC(=O)[C@@H](N)Cc1cn(C(c2ccccc2)(c2ccccc2)c2ccccc2)cn1)C(=O)N[C@@H](Cc1ccccc1)C(=O)N[C@@H](Cc1ccc(O)cc1)C(=O)N[C@@H](Cc1c[nH]cn1)C(=O)N[C@@H](CCC(N)=O)C(=O)N[C@@H](CCC(N)=O)C(=O)N[C@@H](C)C(=O)N[C@@H](CCCNC(=N)N)C(=O)N[C@@H](Cc1ccccc1)C(N)=O [HKFY-42, (S)-2-((2S,5S,8S,11S)-2-((1H-imidazol-4-yl)methyl)-11-((S)-2-amino-3-(1-trityl-1H-imidazol-4-yl)propanamido)-8-benzyl-5-(4-hydroxybenzyl)-4,7,10,17-tetraoxo-3,6,9,16-tetraazatetracosanamido)-N1-((S)-5-amino-1-(((S)-1-(((S)-1-(((S)-1-amino-1-oxo-3-phenylpropan-2-yl)amino)-5-guanidino-1-oxopentan-2-yl)amino)-1-oxopropan-2-yl)amino)-1,5-dioxopentan-2-yl)pentanediamide] (H-[His(Trt)]K(Octanoyl)FYHQQARF-NH2) | 11.8 ± 0.02 |
| CCCCCCCC(=O)NCCCC[C@H](NC(=O)[C@@H](N)Cc1cn(C(c2ccccc2)(c2ccccc2)c2ccccc2)cn1)C(=O)N[C@@H](Cc1ccccc1)C(=O)N[C@@H](Cc1ccc(O)cc1)C(=O)N[C@@H](CCC(N)=O)C(=O)N[C@@H](CC(N)=O)C(=O)N[C@@H](CCC(N)=O)C(=O)N[C@@H](C)C(=O)N[C@@H](CCCNC(=N)N)C(=O)N[C@@H](Cc1ccccc1)C(N)=O [HKFY-43, (S)-N1-((S)-1-(((S)-1-(((S)-1-amino-1-oxo-3-phenylpropan-2-yl)amino)-5-guanidino-1-oxopentan-2-yl)amino)-1-oxopropan-2-yl)-2-((2S,5S,8S,11S,14S)-2-(2-amino-2-oxoethyl)-14-((S)-2-amino-3-(1-trityl-1H-imidazol-4-yl)propanamido)-5-(3-amino-3-oxopropyl)-11-benzyl-8-(4-hydroxybenzyl)-4,7,10,13,20-pentaoxo-3,6,9,12,19-pentaazaheptacosanamido)pentanediamide] (H-[His(Trt)]K(Octanoyl)FYQNQARF-NH2) | 12.1 ± 0.02 |
| CCCCCCCC(=O)NCCCC[C@H](NC(=O)[C@@H](N)Cc1cn(C(c2ccccc2)(c2ccccc2)c2ccccc2)cn1)C(=O)N[C@@H](Cc1ccccc1)C(=O)N[C@@H](Cc1ccc(O)cc1)C(=O)N[C@@H](Cc1c[nH]c2ccccc12)C(=O)O [HKFY-44, N6-octanoyl-N2-(Nt-trityl-L-histidyl)-L-lysyl-L-phenylalanyl-L-tyrosyl-L-tryptophan] (H-[His(Trt)]K(Octanoyl)FYW-OH) | 20 ± 0.47 |
| CCCCCCCC(=O)NCCCC[C@H](NC(=O)[C@H](Cc1cn(C(c2ccccc2)(c2ccccc2)c2ccccc2)cn1)NC(=O)CCCC[C@@H]1SC[C@@H]2NC(=O)N[C@@H]21)C(=O)N[C@@H](Cc1ccc(-c2ccccc2)cc1)C(=O)N[C@@H](Cc1ccc(O)cc1)C(=O)O [HKFY-45, ((S)-3-([1,1′-biphenyl]-4-yl)-2-((S)-6-octanamido-2-((S)-2-(5-((3aS,4S,6aR)-2-oxohexahydro-1H-thieno[3,4-d]imidazol-4-yl)pentanamido)-3-(1-trityl-1H-imidazol-4-yl)propanamido)hexanamido)propanoyl)-L-tyrosine] (Biotin-[His(Trt)]K(Octanoyl)[Bip]Y-OH) | 21 ± 2.58 |
| CCCCCCCC(=O)NCCCC[C@H](NC(=O)[C@@H](N)Cc1cn(C(c2ccccc2)(c2ccccc2)c2ccccc2)cn1)C(=O)N[C@@H](Cc1ccccc1)C(=O)N[C@@H](Cc1c[nH]c2ccccc12)C(=O)O [HKFY-46, N6-octanoyl-N2-(Nt-trityl-L-histidyl)-L-lysyl-L-phenylalanyl-L-tryptophan] (H-[His(Trt)]K(Octanoyl)FW-OH) | 20 ± 0.28 |
| CCCCCCCC(=O)NCCCC[C@H](NC(=O)[C@@H](N)Cc1cn(C(c2ccccc2)(c2ccccc2)c2ccccc2)cn1)C(=O)N[C@@H](Cc1ccc(O)cc1)C(=O)N[C@@H](Cc1ccccc1)C(=O)O [HKFY-47, N6-octanoyl-N2-(Nt-trityl-L-histidyl)-L-lysyl-L-tyrosyl-L-phenylalanine] (H-[His(Trt)]K(Octanoyl)YF-OH) | 13 ± 1.7 |
| CCCCCCCC(=O)NCCCC[C@H](NC(=O)[C@@H](N)Cc1cn(C(c2ccccc2)(c2ccccc2)c2ccccc2)cn1)C(=O)N[C@@H](Cc1ccc(O)cc1)C(=O)N[C@@H](Cc1ccc(O)cc1)C(=O)O [HKFY-48, N6-octanoyl-N2-(Nt-trityl-L-histidyl)-L-lysyl-L-tyrosyl-L-tyrosine] (H-[His(Trt)]K(Octanoyl)YY-OH) | 14.4 ± 2.7 |
| CCCCCCCC(=O)NCCCC[C@H](NC(=O)[C@@H](N)Cc1cn(C(c2ccccc2)(c2ccccc2)c2ccccc2)cn1)C(=O)N[C@@H](Cc1ccccc1)C(=O)O [HKFY-49, N6-octanoyl-N2-(Nt-trityl-L-histidyl)-L-lysyl-L-phenylalanine] (H-[His(Trt)]-Lys(Octanoyl)-Phe-OH) | 18.3 ± 1.8 |
| CCCCCCCC(=O)NCCCC[C@H](NC(=O)[C@@H](N)Cc1cn(C(c2ccccc2)(c2ccccc2)c2ccccc2)cn1)C(=O)N[C@@H](Cc1ccccc1)C(=O)N[C@@H](CO)C(=O)O [HKFY-50, N6-octanoyl-N2-(Nt-trityl-L-histidyl)-L-lysyl-L-phenylalanyl-L-serine] (H-[His(Trt)]K(Octanoyl)FS-OH) | 16.2 ± 1.5 |
| CCCCCCCC(=O)NCCCC[C@H](NC(=O)[C@@H](N)Cc1cn(C(c2ccccc2)(c2ccccc2)c2ccccc2)cn1)C(=O)N[C@@H](CC(C)C)C(=O)N[C@@H](Cc1ccc(O)cc1)C(=O)O [HKFY-51, N6-octanoyl-N2-(Nt-trityl-L-histidyl)-L-lysyl-L-leucyl-L-tyrosine] (H-[His(Trt)]K(Octanoyl)LY-OH) | 14.4 ± 1.9 |
| C[C@H](NC(=O)[C@H](CCC(N)=O)NC(=O)[C@H](CCC(N)=O)NC(=O)[C@H](CC(=O)O)NC(=O)[C@H](Cc1ccc(O)cc1)NC(=O)[C@H](Cc1ccccc1)NC(=O)[C@@H](N)Cc1cn(C(c2ccccc2)(c2ccccc2)c2ccccc2)cn1)C(=O)N[C@@H](CCCNC(=N)N)C(=O)N[C@@H](Cc1ccccc1)C(N)=O [HKFY-52, (6S,9S,12S,15S,18S)-1-amino-6-(((S)-1-amino-1-oxo-3-phenylpropan-2-yl)carbamoyl)-18-((S)-2-((S)-2-((S)-2-amino-3-(1-trityl-1H-imidazol-4-yl)propanamido)-3-phenylpropanamido)-3-(4-hydroxyphenyl)propanamido)-12,15-bis(3-amino-3-oxopropyl)-1-imino-9-methyl-8,11,14,17-tetraoxo-2,7,10,13,16-pentaazaicosan-20-oic acid] (H-[His(Trt)]FYDQQARF-NH2) | 15.5 ± 2.2 |
| CCCCCCCC(=O)NCCCC[C@H](NC(=O)[C@H](CO)NC(=O)CNC(=O)[C@@H](N)Cc1cn(C(c2ccccc2)(c2ccccc2)c2ccccc2)cn1)C(=O)N[C@@H](Cc1ccccc1)C(=O)N[C@@H](Cc1ccc(O)cc1)C(=O)O [HKFY-53, N6-octanoyl-N2-(Nt-trityl-L-histidylglycyl-L-seryl)-L-lysyl-L-phenylalanyl-L-tyrosine] (H-[His(Trt)]GSK(Octanoyl)FY-OH) | 8 ± 2.12 |
| CCCCCCCC(=O)NCCCC[C@H](N)C(=O)N[C@@H](Cc1ccccc1)C(=O)N[C@@H](Cc1ccc(O)cc1)C(=O)O [HKFY-54, N6-octanoyl-L-lysyl-L-phenylalanyl-L-tyrosine] (H-Lys(Octanoyl)-Phe-Tyr-OH) | 7.8 ± 2.5 |
| CCCCCCCC(=O)NCCCC[C@H](N)C(=O)N[C@@H](Cc1cn(C(c2ccccc2)(c2ccccc2)c2ccccc2)cn1)C(=O)N[C@@H](Cc1ccccc1)C(=O)N[C@@H](Cc1ccc(O)cc1)C(=O)O [HKFY-55, Na-(N6-octanoyl-L-lysyl)-Nt-trityl-L-histidyl-L-phenylalanyl-L-tyrosine] (H-K(Octanoyl)[His(Trt)]FY-OH) | 16.8 ± 2.5 |
| CCCCCCCC(=O)NCCCC[C@H](NC(=O)[C@@H](N)Cc1c[nH]c(-c2ccccc2)n1)C(=O)N[C@H](Cc1ccc(C)cc1)C(=O)N[C@@H](Cc1ccc(O)cc1)C(=O)O [HKFY-57, ((R)-2-((S)-2-((S)-2-amino-3-(2-phenyl-1H-imidazol-4-yl)propanamido)-6-octanamidohexanamido)-3-(p-tolyl)propanoyl)-L-tyrosine] | 8.5 ± 2.3 |
| CCCCCCCC(=O)NCCCC[C@H](NC(=O)[C@@H](N)Cc1cn(-c2ccccc2)cn1)C(=O)N[C@H](Cc1ccc(C)cc1)C(=O)N[C@@H](Cc1ccc(O)cc1)C(=O)O [HKFY-58, ((R)-2-((S)-2-((S)-2-amino-3-(1-phenyl-1H-imidazol-4-yl)propanamido)-6-octanamidohexanamido)-3-(p-tolyl)propanoyl)-L-tyrosine] | 9.12 ± 2.1 |
